Measured values as given in patent publication US6566331B1, “Treatment of collagen related diseases” (Alphamed Pharmaceutical Corp, priority 1999, dated 2003).

Assays:
Format in all cases: in vivo, human
[1] = test system: women with interstitial cystitis; assay: 19 patient study of women with interstitial cystitis, intravesical instillation
Protocol: A 19 patient study of women with interstitial cystitis was conducted for four weeks. Three of the patients were diagnosed as being urinary incontinent. The diagnosis of IC was considered as being mild to severe. Powdered alpha 1-antitrypsin (40 mg) was dissolved in 40 ml of saline solution. The solutions were instilled into the bladder for 20 minutes weekly for four weeks. Cystoscopy was carried out during and after filling the bladder for one minute at a pressure of 80 cm of water under spinal and general anesthesia. Bladder biopsies were carried out during cystoscopy. 24-hour collection for measurement of creatine, methylhistamine and tryptase were taken.
In lieu of the recombinant or natural alpha 1-antitrypsin, the conjugate with PEG may be used.

[2] = test system: patient having scleroderma of the finger; assay: salve used daily on a patient having scleroderma of the finger
Protocol: A salve comprising 1% alpha 1-antitrypsin was prepared with Aquaphor® and 1% water. The salve was used daily on a patient having scleroderma of the finger. The finger was bent and constricted. The skin around the finger was hardened. After a daily application for one month the skin was softer, the finger was more flexible and the bending was less severe.

[3] = test system: patient with rheumatoid arthritis; assay: DMSO solution administered to arthritic knee of a patient with rheumatoid arthritis; conditions: 5 percent solution in DMSO, topical on arthritic knee; after one week of treatment
Protocol: A 5 percent solution of alpha 1-antitrypsin was prepared with DMSO. A patient with rheumatoid arthritis administered the composition to an arthritic knee.

[4] = 40 mg in 40 ml saline instilled into the bladder for 20 minutes weekly for four weeks, weekly studies
[5] = salve, 1% alpha 1-antitrypsin with Aquaphor and 1% water, daily application for one month

Substance: alpha 1-antitrypsin
- creatine, 24-hour collection [1, 4]: decrease
- methylhistamine, 24-hour collection [1, 4]: decrease
- tryptase, 24-hour collection [1, 4]: decrease
- lesions by cystoscopy ([1]; after two weeks of weekly instillation): substantial decrease in lesions
- continence of the incontinent patients ([1]; after two weeks of weekly instillation, three urinary incontinent patients): continent
- bending of the finger [2, 5]: less severe
- flexibility of the finger [2, 5]: more flexible
- skin around the finger [2, 5]: softer
- finger position after the treatment was stopped ([2]; within six months after stopping the 1% salve): returned to the bent position
- knee flexibility [3]: greater flexibility
- knee pain [3]: free of pain
- knee swelling [3]: substantial reduction in swelling
